For one assay, the system named is S. aureus. Kind of assay: Resistance study by serial passaging at sub-MIC. Format: cell-based. The conditions noted are these: 14 passages at sub-MIC (MIC/2). The procedure: (§1) Two control antibiotics norfloxacin and colistin were chosen for S. aureus and for A. baumannii, respectively. In case of norfloxacin and colistin also, the initial MIC values were determined against respective bacteria. After the initial MIC experiment, serial passaging was initiated by transferring bacterial suspension grown at the sub-MIC of the polymer/antibiotics and was subjected to another MIC assay. […] The process was repeated for 14 passages for both S. aureus and A. baumannii respectively. The fold increase in MIC for test polymer to the control antibiotics was plotted against the number of passages to determine the propensity of bacterial resistance development.

For another assay, the system named is A. baumannii. Kind of assay: Resistance study by serial passaging at sub-MIC. Format: cell-based. The conditions noted are these: 14 passages at sub-MIC (MIC/2). The procedure: as §1

Regarding `CCn1cc(C(=O)O)c(=O)c2cc(F)c(N3CCNCC3)cc21` [norfloxacin], in the assay on S. aureus, the “change in MIC on serial passaging” value is listed as “gradual increase in MIC”. Consider colistin, for which the “change in MIC on serial passaging” value in the assay on A. baumannii is reported as “gradual increase in MIC”.
